Laboratory results as given in PubChem BioAssay (NCI).
Several values for one entry are separate records, joined by “and”; a condition that tells them apart may be missing. Equal values may be shown once.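 Method: 48-hour compound exposure of cells in 96-well plates, five concentrations, linear interpolation of endpoints. At the GI50, growth is halved. TGI denotes the concentration required for complete inhibition of growth.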

How the values were obtained:
Experiment in all cases: DTP human tumour cell line panel, 48 h
U251 CNS = system: U251 CNS
EKVX NSCLC = system: EKVX NSCLC
OVCAR-8 ovarian = system: OVCAR-8 ovarian
NCI-H522 lung = system: NCI-H522 lung
SF-295 CNS = system: SF-295 CNS
BT-549 breast = system: BT-549 breast
HS 578T breast = system: HS 578T breast
HOP-62 NSCLC = system: HOP-62 NSCLC
RPMI-8226 leukemia = system: RPMI-8226 leukemia
SNB-75 CNS = system: SNB-75 CNS
SK-MEL-28 melanoma = system: SK-MEL-28 melanoma
RXF 393 renal = system: RXF 393 renal
SK-MEL-5 melanoma = system: SK-MEL-5 melanoma
OVCAR-3 ovarian = system: OVCAR-3 ovarian
NCI-H460 lung = system: NCI-H460 lung
CCRF-CEM leukemia = system: CCRF-CEM leukemia
SR leukemia = system: SR leukemia
SN12C renal = system: SN12C renal
MDA-MB-435 = system: MDA-MB-435
PC-3 prostate = system: PC-3 prostate
SNB-19 CNS = system: SNB-19 CNS
MALME-3M melanoma = system: MALME-3M melanoma
T-47D breast = system: T-47D breast
MCF7 breast = system: MCF7 breast
HCC-2998 colon = system: HCC-2998 colon
TK-10 renal = system: TK-10 renal
OVCAR-4 ovarian = system: OVCAR-4 ovarian
CAKI-1 renal = system: CAKI-1 renal
SF-268 CNS = system: SF-268 CNS
HCT-116 colon = system: HCT-116 colon
IGROV1 ovarian = system: IGROV1 ovarian
DU-145 prostate = system: DU-145 prostate
NCI-H23 lung = system: NCI-H23 lung
A498 renal = system: A498 renal
MOLT-4 leukemia = system: MOLT-4 leukemia
HL-60(TB) leukemia = system: HL-60(TB) leukemia
UACC-257 melanoma = system: UACC-257 melanoma
LOX IMVI melanoma = system: LOX IMVI melanoma
KM12 colon = system: KM12 colon
MDA-MB-468 breast = system: MDA-MB-468 breast
SK-OV-3 ovarian = system: SK-OV-3 ovarian
786-0 renal = system: 786-0 renal
OVCAR-5 ovarian = system: OVCAR-5 ovarian
UACC-62 melanoma = system: UACC-62 melanoma
HCT-15 colon = system: HCT-15 colon
SW-620 colon = system: SW-620 colon
M14 melanoma = system: M14 melanoma
K-562 leukemia = system: K-562 leukemia
MDA-MB-231 breast = system: MDA-MB-231 breast
SK-MEL-2 melanoma = system: SK-MEL-2 melanoma
ACHN renal = system: ACHN renal
A549 NSCLC = system: A549 NSCLC
COLO 205 colon = system: COLO 205 colon
NCI-H226 lung = system: NCI-H226 lung
HT29 colon = system: HT29 colon
SF-539 CNS = system: SF-539 CNS
UO-31 renal = system: UO-31 renal
HOP-92 NSCLC = system: HOP-92 NSCLC

In the case of `O=C1Nc2ccc(Cl)cc2/C1=C/c1ccc(OCc2ccc(Br)cc2F)cc1`, the GI50 (U251 CNS) is reported as 2.03 µM, the TGI (U251 CNS) is reported as 4.07 µM and the GI50 (EKVX NSCLC) is reported as 4.51 µM. The TGI (EKVX NSCLC) was 22.1 µM, the GI50 (OVCAR-8 ovarian) was 3.74 µM and the TGI (OVCAR-8 ovarian) was 15.1 µM. It also gave a GI50 (NCI-H522 lung) of 3.31 µM, a TGI (NCI-H522 lung) of 11.1 µM and a GI50 (SF-295 CNS) of 3.24 µM. It also gave a TGI (SF-295 CNS) of 12.1 µM, a GI50 (BT-549 breast) of 9.48 µM and a TGI (BT-549 breast) of 26.8 µM. The GI50 (HS 578T breast) was 2.37 µM, the TGI (HS 578T breast) was 6.69 µM and the GI50 (HOP-62 NSCLC) was 3.14 µM. The TGI (HOP-62 NSCLC) was 11.7 µM, the GI50 (RPMI-8226 leukemia) was 9.01 µM and the TGI (RPMI-8226 leukemia) was 24 µM. It also gave a GI50 (SNB-75 CNS) of 2 µM, a TGI (SNB-75 CNS) of 7.32 µM and a GI50 (SK-MEL-28 melanoma) of 5.42 µM. The TGI (SK-MEL-28 melanoma) was 17.4 µM, the GI50 (RXF 393 renal) was 4.73 µM and the TGI (RXF 393 renal) was 18.1 µM. It also gave a GI50 (SK-MEL-5 melanoma) of 10.8 µM, a TGI (SK-MEL-5 melanoma) of 23.1 µM and a GI50 (OVCAR-3 ovarian) of 3.28 µM. The TGI (OVCAR-3 ovarian) was 10.1 µM, the GI50 (NCI-H460 lung) was 2.1 µM and the TGI (NCI-H460 lung) was 4.38 µM. It also gave a GI50 (CCRF-CEM leukemia) of 4.55 µM, a TGI (CCRF-CEM leukemia) of 17.7 µM and a GI50 (SR leukemia) of 2.72 µM. For the same compound, the TGI (SR leukemia) was 9.16 µM, the GI50 (SN12C renal) was 4.62 µM and the TGI (SN12C renal) was 18.7 µM. The GI50 (MDA-MB-435) was 9.81 µM, the TGI (MDA-MB-435) was 22.2 µM and the GI50 (PC-3 prostate) was 3.79 µM. For the same compound, the TGI (PC-3 prostate) was 16.6 µM, the GI50 (SNB-19 CNS) was 4.06 µM and the TGI (SNB-19 CNS) was 15.7 µM. The GI50 (MALME-3M melanoma) was 2.76 µM, the TGI (MALME-3M melanoma) was 9.8 µM and the GI50 (T-47D breast) was 10.9 µM. For the same compound, the TGI (T-47D breast) was 30.8 µM, the GI50 (MCF7 breast) was 2.95 µM and the TGI (MCF7 breast) was 14.2 µM. It also gave a GI50 (HCC-2998 colon) of 20.5 µM, a TGI (HCC-2998 colon) of 65.7 µM and a GI50 (TK-10 renal) of 6.75 µM. For the same compound, the TGI (TK-10 renal) was 22.9 µM, the GI50 (OVCAR-4 ovarian) was 2.06 µM and the TGI (OVCAR-4 ovarian) was 4.67 µM. For the same compound, the GI50 (CAKI-1 renal) was 2.05 µM, the TGI (CAKI-1 renal) was 7.06 µM and the GI50 (SF-268 CNS) was 5.01 µM. For the same compound, the TGI (SF-268 CNS) was 17.7 µM, the GI50 (HCT-116 colon) was 3.13 µM and the TGI (HCT-116 colon) was 10.7 µM. For the same compound, the GI50 (IGROV1 ovarian) was 4.11 µM, the TGI (IGROV1 ovarian) was 15.5 µM and the GI50 (DU-145 prostate) was 10.2 µM. It also gave a TGI (DU-145 prostate) of 26.6 µM, a GI50 (NCI-H23 lung) of 2.98 µM and a TGI (NCI-H23 lung) of 12.2 µM. The GI50 (A498 renal) was 2.45 µM, the TGI (A498 renal) was 5.42 µM and the GI50 (MOLT-4 leukemia) was 4.63 µM. The TGI (MOLT-4 leukemia) was 19.2 µM, the GI50 (HL-60(TB) leukemia) was 10.9 µM and the TGI (HL-60(TB) leukemia) was 26.1 µM. The GI50 (UACC-257 melanoma) was 13 µM, the TGI (UACC-257 melanoma) was 27.6 µM and the GI50 (LOX IMVI melanoma) was 2.88 µM. The TGI (LOX IMVI melanoma) was 10 µM, the GI50 (KM12 colon) was 8.56 µM and the TGI (KM12 colon) was 25.7 µM. For the same compound, the GI50 (MDA-MB-468 breast) was 8.46 µM, the TGI (MDA-MB-468 breast) was 21.9 µM and the GI50 (SK-OV-3 ovarian) was 4.2 µM. It also gave a TGI (SK-OV-3 ovarian) of 17.9 µM, a GI50 (786-0 renal) of 3.06 µM and a TGI (786-0 renal) of 8.32 µM. For the same compound, the GI50 (OVCAR-5 ovarian) was 13 µM, the TGI (OVCAR-5 ovarian) was 42.9 µM and the GI50 (UACC-62 melanoma) was 3.72 µM. It also gave a TGI (UACC-62 melanoma) of 15.4 µM, a GI50 (HCT-15 colon) of 5.77 µM and a TGI (HCT-15 colon) of 21 µM. For the same compound, the GI50 (SW-620 colon) was 2.8 µM, the TGI (SW-620 colon) was 10.3 µM and the GI50 (M14 melanoma) was 4.97 µM. For the same compound, the TGI (M14 melanoma) was 18.6 µM, the GI50 (K-562 leukemia) was 3.87 µM and the TGI (K-562 leukemia) was 15.3 µM. It also gave a GI50 (MDA-MB-231 breast) of 3.21 µM, a TGI (MDA-MB-231 breast) of 12.2 µM and a GI50 (SK-MEL-2 melanoma) of 15.5 µM. For the same compound, the TGI (SK-MEL-2 melanoma) was 30.1 µM, the GI50 (ACHN renal) was 2.19 µM and the TGI (ACHN renal) was 5.29 µM. The GI50 (A549 NSCLC) was 3.25 µM, the TGI (A549 NSCLC) was 11.3 µM and the GI50 (COLO 205 colon) was 9.18 µM. The TGI (COLO 205 colon) was 37.5 µM, the GI50 (NCI-H226 lung) was 2.66 µM and the TGI (NCI-H226 lung) was 11.5 µM. For the same compound, the GI50 (HT29 colon) was 12.9 µM, the TGI (HT29 colon) was 29.1 µM and the GI50 (SF-539 CNS) was 6.32 µM. It also gave a TGI (SF-539 CNS) of 19.1 µM, a GI50 (UO-31 renal) of 1.46 µM and a TGI (UO-31 renal) of 6.65 µM. The GI50 (HOP-92 NSCLC) was 2.12 µM and the TGI (HOP-92 NSCLC) was 6.91 µM.

In the case of `CC1(C)N=C(N)N=C(N)N1c1cc(Cl)ccc1Cl`, the GI50 (MDA-MB-468 breast) is reported as 28.6 µM and the TGI (MDA-MB-468 breast) is reported as over 100 µM.

`CNC(=O)c1cccc(-c2ccc3c(N4CCOC[C@@H]4C)nc(N4CCOC[C@@H]4C)nc3n2)c1` was tested, and the GI50 (MDA-MB-468 breast) was 0.0436 µM and 0.116 µM and 0.0681 µM and the TGI (MDA-MB-468 breast) was 0.473 µM and 0.558 µM and 0.499 µM.

`O=C(Nc1cccc(-c2nc(-c3ccc(NC(=O)c4cccs4)cc3Cl)no2)c1)Nc1ccc(NC(=O)C2CC2)c(C(F)(F)F)c1` gave a GI50 (MDA-MB-468 breast) of 0.181 µM and a TGI (MDA-MB-468 breast) of 0.394 µM.

`O=C1CCC2(C=C(Br)C(=O)C(Br)=C2)O1` showed a GI50 (MDA-MB-468 breast) of 1.64 µM and a TGI (MDA-MB-468 breast) of 4.29 µM.
